Test results reported in patent US20040076974A1, “Liver necrosis predictive genes” (priority 2002, published 2004).
Like-named read-outs stand apart in the source and are kept apart here.

Test system: Sprague Dawley rats
Conditions: for Liver Necrosis / Score (histopathology liver necrosis severity score): rat, intraperitoneal; for Liver Necrosis: 72 hours after treatment; for Score (histopathology liver necrosis severity score): 72 hours, 1 = not remarkable, 2 and higher increasing severity
Summary of the method: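 Toxicity calls (necrosis present or absent at 72 h) and histopathology scores were correlated with tissue gene expression from Crl:CD Sprague Dawley rats. Animals, usually 3 treated with compound by i.p. route and 3 given vehicle, were killed at 6, 24 or 72 h and tissues frozen immediately in liquid nitrogen.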

## CCC1(c2ccccc2)C(=O)NC(=O)NC1=O [phenobarbital]
72 h, dose 20
  Liver Toxicity Necrosis Classification: no
72 h, dose 80
  Liver Toxicity Necrosis Classification: no
compound-dose group at 72 h, dose 20
  Liver Toxicity Necrosis Classification: no
compound-dose group at 72 h, dose 80
  Liver Toxicity Necrosis Classification: no
compound-dosegroup at 72 h, dose 20
  Liver Toxicity Necrosis Classification: no
compound-dosegroup at 72 h, dose 80
  Liver Toxicity Necrosis Classification: no
Dose 20 mg/kg
  Liver Necrosis: no
  Score (histopathology liver necrosis severity score): 1
Dose 80 mg/kg
  Liver Necrosis: no
  Score (histopathology liver necrosis severity score): 1
